Laboratory results taken from patent publication US5843449A, “Proteins and novel peptides derived from autoantigen for use in immunotherapy of autoimmune diseases” (Akzo Nobel N.V., priority 1996, dated 1998).
Values joined by “and” are separate entries in the source; they are usually repeats but may differ in a detail not shown here. Identical values can stand only once.

Key:
Type in all cases: in vivo
[1] = system: Balb/c mice; assay: Immunological tolerance by intranasal HC gp-39, DTH assay (footpad swelling)
Description: (§1) Twenty eight μg of protein was administered intranasally (2×10 μl) to 10 female Balb/c mice (anesthetized lightly with Enflurance) using a PT45 micro conduit and a Hamilton syringe. Antigen was administered on day -15, -10 and -5 prior to arthritis induction. Controls (n=10) were submitted to the same procedure but received the vehicle (PBS) only (Table 5).
Immunological tolerance was evaluated by measuring delayed type hypersensitivity (DTH) response following sensitization as described above on day 0, using 10 μg of protein. Sensitization on day 0 was followed by an injection of 10 μg HC gp-39 in […] in the left hind footpad on day 8 (challenge). DTH reactions were measured as the increase in footpad ([swelling left (mm×10^-3)-swelling right (mm×10^-3)]/swelling right (mm×10^-3))×100%. The footpad swelling was measured using an in house designed μmeter at 0, 24 and 48 hr after challenge.

[2] = system: Balb/c mice; assay: Tolerance to arthritis induction or progression after intranasal HC gp-39; conditions: for arthritis signs: mild (number of animals): mild: score per animal does not exceed 2; for arthritis signs: severe (number of animals): severe: score per animal ≥4; for arthritis onset (day): first signs appear - highest number of animals affected: monitored to day 31
Description: (§2) 10 or 50 μg of purified HC gp-39 in a 100 μl volume PPBS (0.5M NaCl, 0.01M sodium phosphate buffer, pH 7.5) mixed 1:1 in incomplete Freunds adjuvant (IFA) was injected subcutaneously in the chest region in 2×4 female Balb/c mice (Harlan CPB, Zeist, The Netherlands) whereas 4 controls were injected with PBS (1:1 in IFA). Mice were examined daily for clinical signs of arthritis. Severity of arthritis was assessed by scoring each paw from 0-3 (according to the article by Glant et al). In short, score 0=no changes, score 1=erythema and swelling, score 2=swelling and appearance of deformities, score 3=immobility due to loss of flexion and extension.
as §1
Tolerance to arthritis induction in these same mice was then further monitored until day 31 following sensitization and mice were examined daily for clinical signs. Severity of arthritis was assessed as mentioned above.

[3] = system: Balb/c mice; assay: Arthritogenicity of HC gp-39 in Balb/c mice; conditions: for arthritis signs: mild (number of animals) / arthritis signs: none (number of animals) / arthritis signs: severe (number of animals): n = 4; for arthritis signs: mild (number of animals): mild: score per animal does not exceed 2; for arthritis signs: none (number of animals): none: score = 0; for arthritis signs: severe (number of animals): severe: score per animal ≥3
Description: as §2

[4] = controls (n = 10): PBS intranasal, 10 μg HC gp-39 s.c. day 0, 10 μg footpad challenge day 8
[5] = tolerized (n = 9): 28 μg HC gp-39 intranasal day -15, -10, -5, 10 μg s.c. day 0, 10 μg footpad day 8
[6] = controls (n = 10), non-tolerized, 10 μg HC gp-39 s.c.
[7] = tolerized (n = 10): 28 μg HC gp-39 intranasal x3, then 10 μg s.c.

HC gp-39: Human Cartilage glycoprotein 39, purified from culture supernatant of MG63 human osteosarcoma cells; target autoantigen in RA
DTH response (in words) ([1]; control (non-tolerized) mice injected with HC gp-39 at day 0): strong, antigen-specific DTH response
DTH, mean % swelling 0 hr [1, 4]: -1.3%
DTH, mean % swelling 24 hr [1, 4]: 31.4%
DTH, mean % swelling 48 hr [1, 4]: 38.6%
arthritis ankle (animals affected, adjacent to site of challenge) [1, 4]: 4 out of 10 and 4/10 and four out of ten
DTH, mean % swelling 0 hr [1, 5]: -0.05%
DTH, mean % swelling 24 hr [1, 5]: 3.7%
DTH, mean % swelling 48 hr [1, 5]: 1.5%
arthritis ankle (animals affected, adjacent to site of challenge) [1, 5]: did not develop an arthritis and 0/9 and fully protected
DTH responses upon challenge (in words) ([1]; tolerized by intranasal administration of HC gp-39): completely abrogated
arthritis signs: mild (number of animals) [2, 6]: three and 3
arthritis signs: none (number of animals) ([2]; controls (n = 10), non-tolerized, 10 μg HC gp-39 s.c., no signs: score 0): 0
arthritis signs: severe (number of animals) [2, 6]: Seven and 7
arthritis onset (day): first signs appear - highest number of animals affected ([2]; controls (n = 10), non-tolerized, sensitized with 10 μg HC gp-39 s.c.): 13 to 16 days
arthritis onset (day): first signs appear - highest number of animals affected ([2]; tolerized (n = 10): 28 μg HC gp-39 intranasal day -15, -10, -5, then 10 μg s.c.): 23 to 24 days
arthritis signs: mild (number of animals) [2, 7]: two and 2
arthritis signs: severe (number of animals) [2, 7]: Three and 3
delay of arthritis onset in tolerized animals, hind and fore paws respectively ([2]; tolerized vs non-tolerized, FIG. 1): 7 to 9 days
arthritis signs: mild (number of animals) ([3]; 10 μg s.c. in IFA): One and 1
arthritis signs: none (number of animals) ([3]; 10 μg s.c. in IFA): 0
arthritis signs: severe (number of animals) ([3]; 10 μg s.c. in IFA): Three out of 4 and 3
arthritis signs: mild (number of animals) ([3]; 50 μg s.c. in IFA): 0
arthritis signs: none (number of animals) ([3]; 50 μg s.c. in IFA): 0
arthritis signs: severe (number of animals) ([3]; 50 μg s.c. in IFA): all mice and 4
arthritis onset (day) FP (fore paw), per animal ([3]; 50 μg s.c. in IFA, n = 4 Balb/c mice): 15 to 20 days
frequency of symmetrical distribution of afflicted joints ([3]; 50 μg s.c. in IFA, followed for 62 days): > 50%
